Assay results reported in patent US9255110B2 (Hoffmann-La Roche Inc., priority 2010, dated 2016).
Structures can show the parent of a compound that is named as a salt.

These compounds were tested against IRAK-4 (Homo sapiens (Human), UniProt Q9NWZ3) (assay: In vitro IRAK-4 kinase assay). Conditions: purified recombinant IRAK-4, 50 uM ATP, 33P peptide phosphorylation.
Format: biochemical
Protocol: Purified recombinant IRAK-4 protein was incubated with 250 uM synthetic peptide ([…]) in 30 ul of kinase buffer including (20 mM MOPS pH7.2, 25 mM beta glycerol phosphate, 5 mM EGTA, 1 mM sodium orthovanadate, 1 mM DTT, 50 uM ATP, 20 mM MgCl2, 10 uCi γ-^33P, 0.1% BSA) for the indicated time. For purified recombinant IRAK-1 protein kinase assay, 50 uM ATP was used. A 25 ul aliquot of the reaction mixture was transferred on to p81 phosphocellulose squares (Upstate Biotechnology, Lake Placid, N.Y.). The assay squares were washed three times with 0.75% phosphoric acid and once with acetone. Enzyme activity was measured by determining the bound radioactivity by liquid scintillation counting.

Chain of IRAK-4 (Q9NWZ3 whole entry, species assumed): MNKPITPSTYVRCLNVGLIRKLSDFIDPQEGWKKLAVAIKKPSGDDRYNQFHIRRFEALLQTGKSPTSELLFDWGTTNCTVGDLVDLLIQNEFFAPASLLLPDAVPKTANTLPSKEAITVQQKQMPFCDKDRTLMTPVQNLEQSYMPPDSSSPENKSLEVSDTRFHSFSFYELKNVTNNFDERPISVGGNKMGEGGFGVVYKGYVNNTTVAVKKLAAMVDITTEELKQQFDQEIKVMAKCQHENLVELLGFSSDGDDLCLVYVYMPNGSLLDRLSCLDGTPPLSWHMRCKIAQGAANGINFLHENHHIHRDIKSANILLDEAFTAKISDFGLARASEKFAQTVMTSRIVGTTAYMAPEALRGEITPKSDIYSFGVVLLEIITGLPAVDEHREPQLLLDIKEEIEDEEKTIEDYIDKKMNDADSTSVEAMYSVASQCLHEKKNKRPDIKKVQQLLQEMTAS

SMILES	IC50 [nM]
COc1ccc(Cl)cc1NC(=O)c1csc2cnc(NCCCO)nc12 [Example 126, 2-(3-Hydroxy-propylamino)-thieno[3,2-d]pyrimidine-7-carboxylic acid (5-chloro-2-methoxy-phenyl)-amide]	2060
COc1ccc(Br)cc1NC(=O)c1cnn2cccnc12 [Example 127, Pyrazolo[1,5-alpha]pyrimidine-3-carboxylic acid (5-bromo-2-methoxy-phenyl)-amide]	2140
COc1ccc(Cl)cc1NC(=O)c1csc2cncnc12 [Example 128, Thieno[3,2-d]pyrimidine-7-carboxylic acid (5-chloro-2-methoxy-phenyl)-amide]	2200
CN(CCO)c1ccc(Cl)cc1NC(=O)c1cnn2cccnc12 [Example 129, Pyrazolo[1,5-alpha]pyrimidine-3-carboxylic acid {5-chloro-2-[(2-hydroxy-ethyl)-methyl-amino]-phenyl}-amide]	2200
O=C(Nc1cc(Cl)ccc1Oc1ccc(O)cc1)c1cnn2cccnc12 [Example 130, Pyrazolo[1,5-alpha]pyrimidine-3-carboxylic acid [5-chloro-2-(4-hydroxy-phenoxy)-phenyl]-amide]	2220
CC[C@@H](CO)Nc1ncc2scc(C(=O)Nc3cc(Cl)ccc3OC)c2n1 [Example 131, 2-(1-Hydroxymethyl-propylamino)-thieno[3,2-d]pyrimidine-7-carboxylic acid (5-chloro-2-methoxy-phenyl)-amide]	2230
COc1ccc(Cl)cc1NC(=O)c1csc2cnc(NCCO)nc12 [Example 132, 2-(2-Hydroxy-ethylamino)-thieno[3,2-d]pyrimidine-7-carboxylic acid (5-chloro-2-methoxy-phenyl)-amide]	2240
O=C(Nc1cc(Cl)ccc1OC1CCC(O)CC1)c1cnn2cc(CO)cnc12 (stereo not drawn) [Example 133, 6-Hydroxymethyl-pyrazolo[1,5-alpha]pyrimidine-3-carboxylic acid [5-chloro-2-(4-hydroxy-cyclohexyloxy)-phenyl]-amide]	2250
COc1cc(C(N)=O)ccc1NC(=O)c1cnn2cccnc12 [Example 134, Pyrazolo[1,5-alpha]pyrimidine-3-carboxylic acid (4-carbamoyl-2-methoxy-phenyl)-amide]	2260
CC(C)COc1ccc(Cl)cc1NC(=O)c1cnn2cccnc12 [Example 135, Pyrazolo[1,5-alpha]pyrimidine-3-carboxylic acid (5-chloro-2-isobutoxy-phenyl)-amide]	2280
O=C(Nc1nc2ccccc2n1CCCO)c1csc2cncnc12 [Example 136, Thieno[3,2-d]pyrimidine-7-carboxylic acid [1-(3-hydroxy-propyl)-1H-benzoimidazol-2-yl]-amide]	2310
O=C(Nc1cc(Cl)ccc1OC[C@@H](O)CO)c1cnn2cccnc12 [Example 137, Pyrazolo[1,5-alpha]pyrimidine-3-carboxylic acid [5-chloro-2-(2,3-dihydroxy-propoxy)-phenyl]-amide]	2310
COCCCOc1ccc(Cl)cc1NC(=O)c1cnn2cccnc12 [Example 138, Pyrazolo[1,5-alpha]pyrimidine-3-carboxylic acid [5-chloro-2-(3-methoxy-propoxy)-phenyl]-amide]	2420
O=C(Nc1cc(Cl)ccc1OCCCO)c1csc2cncnc12 [Example 139, Thieno[3,2-d]pyrimidine-7-carboxylic acid [5-chloro-2-(3-hydroxy-propoxy)-phenyl]-amide]	2450
O=C(Nc1cc(Cl)ccc1OCc1cccc(O)c1)c1cnn2cccnc12 [Example 141, Pyrazolo[1,5-alpha]pyrimidine-3-carboxylic acid [5-chloro-2-(3-hydroxy-benzyloxy)-phenyl]-amide]	2630
COc1cc(OC)c(NC(=O)c2cnn3cccnc23)cc1Cl [Example 142, Pyrazolo[1,5-alpha]pyrimidine-3-carboxylic acid (5-chloro-2,4-dimethoxy-phenyl)-amide]	2740
C=Cc1ccc(OC)c(NC(=O)c2cnn3cccnc23)c1 [Example 143, Pyrazolo[1,5-alpha]pyrimidine-3-carboxylic acid (2-methoxy-5-vinyl-phenyl)-amide]	2750
O=C(Nc1cccc(NCCCO)c1N1CCCCC1)c1cnn2cccnc12 [Example 144, Pyrazolo[1,5-alpha]pyrimidine-3-carboxylic acid [3-(3-hydroxy-propylamino)-2-piperidin-1-yl-phenyl]-amide]	2850
O=C(Nc1cc(Cl)ccc1CCCCO)c1cnn2cccnc12 [Example 145, Pyrazolo[1,5-alpha]pyrimidine-3-carboxylic acid [5-chloro-2-(4-hydroxy-butyl)-phenyl]-amide]	2950
COc1cc(C(=O)NCCO)ccc1NC(=O)c1cnn2cccnc12 [Example 146, Pyrazolo[1,5-alpha]pyrimidine-3-carboxylic acid [4-(2-hydroxy-ethylcarbamoyl)-2-methoxy-phenyl]-amide]	2960

SMILES	IC50 [nM]
O=C(Nc1cc(Cl)ccc1OC1CCC(O)CC1)c1cnn2cc(CCO)cnc12 (stereo not drawn) [Example 147, 6-(2-Hydroxy-ethyl)-pyrazolo[1,5-alpha]pyrimidine-3-carboxylic acid [5-chloro-2-(4-hydroxy-cyclohexyloxy)-phenyl]-amide]	3040
CC(N)C1CCN(c2ccc(Cl)cc2NC(=O)c2cnn3cccnc23)C1 (stereo not drawn) [Example 148, Pyrazolo[1,5-alpha]pyrimidine-3-carboxylic acid {2-[3-(1-amino-ethyl)-pyrrolidin-1-yl]-5-chloro-phenyl}-amide hydrochloride]	3080
CN(CCCO)c1ccc(Cl)cc1NC(=O)c1cnn2cccnc12 [Example 149, Pyrazolo[1,5-alpha]pyrimidine-3-carboxylic acid {5-chloro-2-[(3-hydroxy-propyl)-methyl-amino]-phenyl}-amide]	3400
COc1ccc(Cl)cc1NC(=O)c1csc2cccnc12 [Example 150, Thieno[3,2-beta]pyridine-3-carboxylic acid (5-chloro-2-methoxy-phenyl)-amide]	3460
CNCC1CCN(c2ccc(Cl)cc2NC(=O)c2csc3cncnc23)CC1 [Example 151, Thieno[3,2-d]pyrimidine-7-carboxylic acid [5-chloro-2-(4-methylaminomethyl-piperidin-1-yl)-phenyl]-amide]	3540
COc1ccc(/C=C/CO)cc1NC(=O)c1cnn2cccnc12 [Example 152, Pyrazolo[1,5-alpha]pyrimidine-3-carboxylic acid [5-(3-hydroxy-propenyl)-2-methoxy-phenyl]-amide]	3700
COc1ccc(C)cc1NC(=O)c1cnn2cccnc12 [Example 153, Pyrazolo[1,5-alpha]pyrimidine-3-carboxylic acid (2-methoxy-5-methyl-phenyl)-amide]	3770
CCc1ccc(Cl)cc1NC(=O)c1cnn2cccnc12 [Example 154, Pyrazolo[1,5-alpha]pyrimidine-3-carboxylic acid (5-chloro-2-ethyl-phenyl)-amide]	3800
O=C(Nc1cc(Cl)ccc1Oc1cccc(O)c1)c1cnn2cccnc12 [Example 156, Pyrazolo[1,5-alpha]pyrimidine-3-carboxylic acid [5-chloro-2-(3-hydroxy-phenoxy)-phenyl]-amide]	4050
COc1ccc(Cl)cc1NC(=O)c1csc2cnc(N(C)CCO)nc12 [Example 157, 2-[(2-Hydroxy-ethyl)-methyl-amino]-thieno[3,2-d]pyrimidine-7-carboxylic acid (5-chloro-2-methoxy-phenyl)-amide]	4130
COc1ccc(NC(=O)c2cnn3cccnc23)c(OC)c1 [Example 158, Pyrazolo[1,5-alpha]pyrimidine-3-carboxylic acid (2,4-dimethoxy-phenyl)-amide]	4170
COC(=O)COc1ccc(Cl)cc1NC(=O)c1cnn2cccnc12 [Example 160, {4-Chloro-2-[(pyrazolo[1,5-alpha]pyrimidine-3-carbonyl)-amino]-phenoxy}-acetic acid methyl ester]	4300
O=C(Nc1cc(Cl)ccc1Oc1ccccc1)c1cnn2cccnc12 [Example 161, Pyrazolo[1,5-alpha]pyrimidine-3-carboxylic acid (5-chloro-2-phenoxy-phenyl)-amide]	4650
COc1ccc(Cl)cc1NC(=O)c1csc2ccc(NCCO)nc12 [Example 162, 5-(2-Hydroxy-ethylamino)-thieno[3,2-beta]pyridine-3-carboxylic acid (5-chloro-2-methoxy-phenyl)-amide]	4660
O=C(Nc1cc(Cl)ccc1OC[C@H](O)CO)c1cnn2cccnc12 [Example 163, Pyrazolo[1,5-alpha]pyrimidine-3-carboxylic acid [5-chloro-2-(2,3-dihydroxy-propoxy)-phenyl]-amide]	4660
O=C(Nc1cc(Cl)ccc1N1CCCCC1CO)c1cnn2cccnc12 (stereo not drawn) [Example 164, Pyrazolo[1,5-alpha]pyrimidine-3-carboxylic acid [5-chloro-2-(2-hydroxymethyl-piperidin-1-yl)-phenyl]-amide]	4850
COc1cc(-c2ccccc2)ccc1NC(=O)c1cnn2cccnc12 [Example 165, Pyrazolo[1,5-alpha]pyrimidine-3-carboxylic acid (3-methoxy-biphenyl-4-yl)-amide]	5200
CCc1ccc(OC)c(NC(=O)c2cnn3cccnc23)c1 [Example 166, Pyrazolo[1,5-alpha]pyrimidine-3-carboxylic acid (5-ethyl-2-methoxy-phenyl)-amide]	5880
COc1cc(-c2ccccc2)c(C)cc1NC(=O)c1cnn2cccnc12 [Example 167, Pyrazolo[1,5-alpha]pyrimidine-3-carboxylic acid (5-methoxy-2-methyl-biphenyl-4-yl)-amide]	5940
